Common to all, as to assay type: biochemical
The test system of one experiment is Factor Xa (FXa). Nature of the experiment: Chromogenic anti-FXa assay in the presence of antithrombin III. The following applies: with ATIII. As for the experimental part:
The BIOPHEN Heparin Anti-Xa (2 stages) USP/EP kit (Aniara) was used to determine factor Xa activity. This chromogenic anti-Xa method for measuring homogeneous heparin in purified systems is in compliance with Pharmacopoeias (USP, EP) and FDA guidelines. All reagents were prepared according to manufacturer's instructions and incubated at 37° C. for 15 min. Varying concentrations of heparin (Neoparin) or glycopolymers 1-4 (40 μL) and antithrombin (40 μL) were added to a microcentrifuge tube, mixed, and incubated at 37° C. for 2 min. Factor Xa (40 μL) was added to the solution, incubated at 37° C. for exactly 2 min, and then the factor Xa chromogenic substrate (40 μL) was added. After 2 min, the reaction was quenched with citric acid (20 g/L, 240 μL), and the absorbance was measured at 405 nm. The sample blank was obtained by mixing the reagents in reverse order, and the resulting value was deducted from the absorbance values measured in the assay.
All reagents were prepared according to the manufacturer's instructions and incubated at 37° C. for 15 min. […] Absorbance at 405 nm was measured on a Uvikon XL spectrophotometer. […] The sample blank value was deducted from the absorbance measured for the corresponding assay.

Experiment [1] concerns citrated human plasma. Nature of the experiment: Prothrombin time (PT) analysis. The following applies: 300 μL of 150 μg/mL sample in 2.7 mL citrated human plasma. As for the experimental part: Samples were prepared by mixing 300 μL of the heparin standard or glycopolymer (150 μg/mL) in 0.9% saline with 2.7 mL citrated human plasma. The tube was inverted 3 times to mix the sample thoroughly. Samples were analyzed by the UCLA Clinical & Translational Research Laboratory using a Sysmex® CA-1500 Coagulation Analyzer (Siemens AG, Erlangen, Germany). Clotting time in the absence of an anticoagulant was determined using 0.9% saline solution water (300 μL). Each clotting assay was performed in triplicate.

In experiment [2] the test system is citrated human plasma. Nature of the experiment: Activated partial thromboplastin time (APTT) analysis. As for the experimental part:
Plasma/anticoagulant samples were prepared by mixing 300 μL of the heparin standard or glycopolymer (150 μg/mL) in 0.9% saline and 2.7 mL of citrated human plasma. The tube was inverted 3 times to mix the sample thoroughly. Samples were analyzed by the UCLA Clinical & Translational Research Laboratory using a Sysmex® CA-1500 Coagulation Analyzer (Siemens AG, Erlangen, Germany). Clotting time in the absence of an anticoagulant was determined using 0.9% saline solution water (300 μL). Each clotting assay was performed in triplicate.

Molecules are shown by their SMILES.

The values below come from patent publication US9770461B2, “Tailored glycopolymers as anticoagulant heparin mimetics” (California Institute of Technology, priority 2013, dated 2017).

Regarding `CO[C@H]1O[C@H](COS(=O)(=O)O)[C@@H](O[C@@H]2O[C@@H](C(=O)O)[C@@H](O[C@H]3O[C@H](COS(=O)(=O)O)[C@@H](O[C@@H]4O[C@H](C(=O)O)[C@@H](O[C@H]5O[C@H](COS(=O)(=O)O)[C@@H](O)[C@H](O)[C@H]5NS(=O)(=O)O)[C@H](O)[C@H]4O)[C@H](OS(=O)(=O)O)[C@H]3NS(=O)(=O)O)[C@H](O)[C@H]2OS(=O)(=O)O)[C@H](O)[C@H]1NS(=O)(=O)O` [Arixtra], in the experiment on Factor Xa (FXa), the IC50 was 0.011 ± 0.0001 µM. In addition, in the experiment on citrated human plasma [1], the “PT” value stood at 15.1 ± 0.3 s. Besides, in the experiment with citrated human plasma [2] (300 μL of 150 μg/mL sample in 2.7 mL citrated human plasma), the “APTT” value is recorded as 78.3 ± 0.4 s. The “effect on APTT (in words)” value in the experiment on citrated human plasma [2] (compared to saline control) is reported as “increased only the APTT”.
